Measurements as given in ChEMBL document CHEMBL1177713, “Discovery of 3-[2-(imidazo[1,2-b]pyridazin-3-yl)ethynyl]-4-methyl-N-{4-[(4-methylpiperazin-1-yl)methyl]-3-(trifluoromethyl)phenyl}benzamide (AP24534), a potent, orally active pan-inhibitor of breakpoint cluster region-abelson (BCR-ABL) kinase including the T315I gatekeeper mutant” (J Med Chem, 2010).

Columns and labels:
BaF3 [1] = assay: cells; settings: Mus musculus, BaF3, 72 h
Description: Antiproliferative activity against mouse BA/F3 cells expressing wild type ABL after 3 days by MTS assay

[2] = Clearance in CD rat at 5 mg/kg, iv by LC-MS/MS analysis; format: ADME, organism-based; design: dose 5 mg/kg, route intravenous; settings: in vivo
BaF3 [3] = assay: cells; settings: Mus musculus, BaF3, 72 h; remark: listed apart in the source
Description: Antiproliferative activity against mouse BA/F3 cells expressing ABL T315I mutant after 3 days by MTS assay

Rattus norvegicus [4] = assay: Dose normalized AUC (0 to 24 hrs) in CD rat at 15 mg/kg, po by LC-MS/MS analysis; format: ADME, organism-based; design: time < 24 hr, dose 15 mg/kg, route oral; settings: in vivo
[5] = Volume of distribution in CD rat at 5 mg/kg, iv by LC-MS/MS analysis; format: ADME, organism-based; design: dose 5 mg/kg, route intravenous; settings: in vivo
[6] = Half life in CD rat at 5 mg/kg, iv by LC-MS/MS analysis; format: ADME, organism-based; design: dose 5 mg/kg, route intravenous; settings: in vivo
Rattus norvegicus [7] = assay: (§1) Cmax in CD rat at 15 mg/kg, po by LC-MS/MS analysis; format: ADME, organism-based; design: dose 15 mg/kg, route oral; settings: in vivo, BLD = below limit of detection
BaF3 [8] = assay: cells; settings: Mus musculus, BaF3, 72 h; remark: listed apart in the source
Description: Antiproliferative activity against mouse BA/F3 cells after 3 days by MTS assay

[9] = Half life in CD rat at 15 mg/kg, po by LC-MS/MS analysis; format: ADME, organism-based; design: dose 15 mg/kg, route oral; settings: in vivo
[10] = Oral bioavailability in CD rat at 15 mg/kg by LC-MS/MS analysis; format: ADME, organism-based; settings: in vivo
Mus musculus [11] = assay: Plasma concentmouseion in CD mouse at 30 mg/kg, po after 2 hrs by LC-MS/MS analysis
Mus musculus [12] = assay: Plasma concentration in mouse at 30 mg/kg, po after 24 hrs by LC-MS/MS analysis
[13] = as §1; format: ADME, organism-based; design: dose 15 mg/kg, route oral; settings: CD, in vivo
Mus musculus [14] = assay: Plasma concentmouseion in CD mouse at 30 mg/kg, po after 6 hrs by LC-MS/MS analysis
[15] = Tmax in CD rat at 15 mg/kg, po by LC-MS/MS analysis; format: ADME, organism-based; design: dose 15 mg/kg, route oral; settings: in vivo
K562 = assay: cells; settings: Homo sapiens, K562, 72 h
Description: Antiproliferative activity against human K562 cells expressing wild type ABL after 3 days by MTS assay

IC50 (BaF3 [1]) [nM] | clearance [2] [mL/min/kg] | IC50 (BaF3 [3]) [nM] | AUC (Rattus norvegicus [4]; BLD = below limit of detection) | Vd [5] [L/kg] | half-life [6] [h] | Cmax (Rattus norvegicus [7]) | IC50 (BaF3 [8]) [nM] | half-life [9] [h] | bioavailability [10] [%] | concentration at 2 h (Mus musculus [11]) [ng/mL] | AUC (Rattus norvegicus [4]) [ng·h/mL/mg/kg] | concentration at 24 h (Mus musculus [12]) [ng/mL] | Cmax [13] [ng/mL] | concentration at 6 h (Mus musculus [14]) [ng/mL] | Tmax [15] [h] | IC50 (K562) [nM] | SMILES
3.9 | 40.7 | 31 | BLD | 17.7 | 5 | BLD | 1860 |  |  |  |  |  |  |  |  |  | Cc1ccc(C(=O)Nc2ccc(CN3CCN(C)CC3)c(C(F)(F)F)c2)cc1C#Cc1cnc2[nH]c(=O)[nH]c2c1
1 | 17 | 7.3 |  | 13.1 | 8.9 |  | 1160 | 22.3 | 53 | 622 | 518 | 8.8 | 215 | 387 | 6 |  | CCN1CCN(Cc2ccc(NC(=O)c3ccc(C)c(C#Cc4cnc5cccnn45)c3)cc2C(F)(F)F)CC1
 |  | 295 |  |  |  |  |  |  |  |  |  |  |  |  |  | 1.4 | Cc1cn(-c2cc(NC(=O)c3ccc(C)c(/C=C/n4cnc5c(N)ncnc54)c3)cc(C(F)(F)F)c2)cn1
6.1 | 6.17 | 35 |  | 3.1 | 5.9 |  | 6290 | 11.6 | 62.3 | 2480 | 1707.5 | 163 | 1180 | 2100 | 6 |  | CN1CCN(Cc2ccc(NC(=O)c3ccc(F)c(C#Cc4cnc5cccnn45)c3)cc2C(F)(F)F)CC1
